Source: EP2931723B1, “NEW BICYCLIC COMPOUNDS AND THEIR USE AS ANTIBACTERIAL AGENTS AND -LACTAMASE INHIBITORS” (Fedora Pharmaceuticals Inc., priority 2012, dated 2014)

Key:
Assay in all cases: MIC, antibacterial and synergistic activity
Type in all cases: cell-based
[1] = system: E. coli ATCC 25922; settings: E. coli ATCC 25922 (Wt)
[2] = system: E.coli JMI 4103; settings: E.coli JMI 4103 (KPC-2, Tem-1, CMY-Type)
[3] = system: E. coli JMI 10767; settings: E. coli JMI 10767 (Wt)
Experimental: (§1) In the Tables 10 - 12, compounds herein disclosed were tested in combination with various antibiotics against metallo β-lactamase producing bacteria. Table 3: Synergy of the inhibitor Ex. 1 (4 µg/mL) in combination with antibiotics

[4] = system: E. coli JMI 10768; settings: E. coli JMI 10768 (CTX-M15 (Weak ESBL))
Experimental: as §1

[5] = system: E. coli JMI 10770; settings: E. coli JMI 10770 (CTX-M15 (Hyper ESBL))
Experimental: as §1

[6] = system: E. coli JMI 2665
Experimental: as §1

[7] = system: E. coli JMI 2671
Summary of the method: (§2)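 MICs were measured for antibiotics combined with the test inhibitor, held at a fixed 4 µg/mL, against metallo β-lactamase-producing clinical isolates.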

[8] = system: K. pneumo JMI 2673; settings: K. pneumo JMI 2673 (CTX-M14 (ESBL))
Summary of the method: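 Antibacterial synergy was assessed by testing a β-lactamase inhibitor compound in combination with antibiotics. The inhibitor was held at a fixed concentration of 4 µg/mL, and the minimum inhibitory concentration of the partner antibiotic was determined in its presence.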

[9] = system: K. pneumo JMI 2674; settings: K. pneumo JMI 2674 (CTX-M15 (ESBL))
Summary of the method: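 Antibacterial activity was assessed as minimum inhibitory concentrations against a β-lactamase-producing bacterial strain. Each test inhibitor was combined with an antibiotic, with the inhibitor held at a fixed 4 µg/mL, to determine whether it acted synergistically and restored the antibiotic's effect against the resistant organism.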

[10] = system: K. pneumo JMI 2699; settings: K. pneumo JMI 2699 (VIM-1, CTX-M3)
Summary of the method: as §2

[11] = system: K. pneumo JMI 4088; settings: K. pneumo JMI 4088 (KPC-3 (Cpase))
Summary of the method: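 The compound was tested for synergy by combining it with antibiotics and measuring minimum inhibitory concentrations against β-lactamase producing bacteria. The inhibitor was present at a fixed concentration of 4 µg/mL together with the partner antibiotic, and MIC values were recorded.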

[12] = system: K.pneumo JMI 4109; settings: K.pneumo JMI 4109 (SHV-1, SHV-12)
Summary of the method: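 Antibacterial synergy was assessed by pairing each inhibitor compound, at a constant concentration of 4 µg/mL, with β-lactam antibiotics. The combinations were run against bacterial strains that produce β-lactamases, and the readout was the minimum inhibitory concentration of the antibiotic in the presence of the inhibitor.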

[13] = system: P. aerug JMI 2686; settings: P. aerug JMI 2686 (KPC-2 (Cpase))
Summary of the method: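 This antibacterial synergy assay measured the minimum inhibitory concentration of antibiotics combined with the disclosed inhibitor compounds. The inhibitor was held at 4 µg/mL throughout. The aim was to see whether the added compound strengthened the antibiotic's action against the tested bacteria.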

[14] = system: E. coli JMI 2692; settings: E. coli JMI 2692 (NDM-1, TEM-1, CTX-M-15)
Experimental: (§3) In the Tables 10 - 12, compounds herein disclosed were tested in combination with various antibiotics against metallo β-lactamase producing bacteria.

[15] = system: K. pneumo JMI 2693; settings: K. pneumo JMI 2693 (NDM-1 (Cpase))
Experimental: as §3

[16] = system: K. pneumo JMI 2681; settings: K. pneumo JMI 2681 (Oxa-48 (Cpase))
[17] = system: E. cloacae JMI 36; settings: E. cloacae JMI 36 (P99)
[18] = system: K.pneumo JMI 4109; settings: K.pneumo JMI 4109 (SHV-1, SHV-12); substance alone
[19] = system: K. pneumo JMI 2673; settings: K. pneumo JMI 2673 (CTX-M14 (ESBL)); substance alone
[20] = system: K. pneumo JMI 2674; settings: K. pneumo JMI 2674 (CTX-M15 (ESBL)); substance alone
[21] = system: E. coli JMI 10767; settings: E. coli JMI 10767 (Wt); remark: listed apart in the source
[22] = system: E. coli JMI 10770; settings: Escherichia coli, JMI10770; E. coli JMI 10770 (CTX-M15 (Hyper ESBL)); substance alone
[23] = Aztreonam + inhibitor at 4 µg/mL
[24] = Ceftazidime + inhibitor at 4 µg/mL
[25] = Meropenem + inhibitor at 4 µg/mL

O=C(NO[C@H]1CCCNC1)[C@@H]1CC[C@@H]2CN1C(=O)N2OS(=O)(=O)O [Ex. 2, (2S,5R)-7-Oxo-N-[(3S)-piperidin-3-yloxy] -6-(sulfooxy)-1,6-diazabicyclo[3.2.1]octane-2-carboxamide]
≤.031 µg/mL: MIC Meropenem + inhibitor [1, 25] | MIC Meropenem + inhibitor [2, 25] | MIC Meropenem + inhibitor [5, 25] | MIC Meropenem + inhibitor ([6]; E. coli JMI 2665 (CMY-2 (Plasmid Cpase)), Meropenem + inhibitor at 4 µg/mL) | MIC Meropenem + inhibitor [8, 25] | MIC Meropenem + inhibitor [12, 25] | MIC Meropenem + inhibitor [14, 25] | MIC Meropenem + inhibitor [15, 25] | MIC Meropenem + inhibitor [21, 25]
4 µg/mL: MIC ([4]; Escherichia coli, JMI10768, substance alone) | MIC ([10]; substance alone, read-out: MIC) | MIC ([15]; substance alone) | MIC ([21]; Escherichia coli, JMI10767, substance alone) | MIC [22]
0.5 µg/mL: MIC Ceftazidime + inhibitor ([7]; E. coli JMI 2671 (VIM-19 (Cpase)), Ceftazidime + inhibitor at 4 µg/mL) | MIC Aztreonam + inhibitor [11, 23]
≤0.25 µg/mL: MIC Ceftazidime + inhibitor [1, 24] | MIC Ceftazidime + inhibitor [3, 24] | MIC Ceftazidime + inhibitor [4, 24] | MIC Ceftazidime + inhibitor [5, 24] | MIC Ceftazidime + inhibitor ([6]; E. coli JMI 2665 (CMY-2 (Plasmid Cpase)), Ceftazidime + inhibitor at 4 µg/mL) | MIC Ceftazidime + inhibitor [8, 24] | MIC Ceftazidime + inhibitor [9, 24] | MIC Ceftazidime + inhibitor [10, 24] | MIC Ceftazidime + inhibitor [11, 24] | MIC Ceftazidime + inhibitor [12, 24] | MIC Ceftazidime + inhibitor [14, 24] | MIC Ceftazidime + inhibitor [15, 24] | MIC Ceftazidime + inhibitor [17, 24]
> 16 µg/mL: MIC ([7]; Escherichia coli, JMI2671, E. coli JMI 2671 (VIM-19 (Cpase)), substance alone) | MIC ([16]; substance alone, read-out: MIC) | MIC ([17]; Enterobacter cloacae, JMI36, substance alone, read-out: MIC) | MIC [19] | MIC [20]
2 µg/mL: MIC Aztreonam + inhibitor [16, 23]
≤ 0.5 µg/mL: MIC ([6]; Escherichia coli, JMI2665) | MIC ([14]; Escherichia coli, JMI2692, substance alone, read-out: MIC)
≤.062 µg/mL: MIC Aztreonam + inhibitor [1, 23] | MIC Aztreonam + inhibitor [3, 23] | MIC Aztreonam + inhibitor [4, 23] | MIC Aztreonam + inhibitor [5, 23] | MIC Aztreonam + inhibitor ([6]; E. coli JMI 2665 (CMY-2 (Plasmid Cpase)), Aztreonam + inhibitor at 4 µg/mL) | MIC Aztreonam + inhibitor ([7]; E. coli JMI 2671 (VIM-19 (Cpase)), Aztreonam + inhibitor at 4 µg/mL) | MIC Aztreonam + inhibitor [8, 23] | MIC Aztreonam + inhibitor [10, 23] | MIC Aztreonam + inhibitor [12, 23] | MIC Aztreonam + inhibitor [14, 23] | MIC Aztreonam + inhibitor [15, 23]
>4 µg/mL: MIC Aztreonam + inhibitor [2, 23] | MIC Aztreonam + inhibitor [13, 23]
>2 µg/mL: MIC Meropenem + inhibitor [13, 25] | MIC Meropenem + inhibitor [16, 25]
1 µg/mL: MIC ([1]; Escherichia coli, ATCC25922, substance alone) | MIC Ceftazidime + inhibitor [16, 24]
8 µg/mL: MIC Ceftazidime + inhibitor [2, 24] | MIC ([2]; Escherichia coli, JMI4103, substance alone)
0.062 µg/mL: MIC Meropenem + inhibitor [10, 25] | MIC Meropenem + inhibitor [11, 25]
16 µg/mL: MIC Ceftazidime + inhibitor [13, 24] | MIC [18]
0.125 µg/mL: MIC Meropenem + inhibitor ([7]; E. coli JMI 2671 (VIM-19 (Cpase)), Meropenem + inhibitor at 4 µg/mL) | MIC Aztreonam + inhibitor [9, 23] | MIC Meropenem + inhibitor [9, 25] | MIC Aztreonam + inhibitor [17, 23] | MIC Meropenem + inhibitor [17, 25]
